Measured values reported in the NIST ThermoML archive (doi:10.1021/je400839x).
Numbers after ± are expanded uncertainties.

Test: xn = mol fraction of the nth substance listed
Conditions: for viscosity / speed of sound / mass density: 101 kPa, Liquid; for viscosity: Concentric cylinders viscometry; for speed of sound: Pulse-echo method; for mass density: Vibrating tube method; for surface tension liquid-gas: 294 K, Pendant drop shape

CC(CC(C)(C)C)CC(C)(C)C [2,2,4,6,6-pentamethylheptane] + CCCCCCCCCCCCCCCC
Conditions | mass density [kg/m3] | speed of sound [m/s] | viscosity [mPa·s]
293.15 K, x1 = 0.1261 | 770.6 ± 0.3 | 1342.7 ± 1.4 | 3.1 ± 0.02
293.15 K, x1 = 0.2449 | 767.8 ± 0.3 | 1327.4 ± 1.5 | 2.79 ± 0.02
293.15 K, x1 = 0.4087 | 763.6 ± 0.4 | 1304.9 ± 1.6 | 2.41 ± 0.02
293.15 K, x1 = 0.562 | 759.5 ± 0.4 | 1282.2 ± 1.8 | 2.09 ± 0.02
293.15 K, x1 = 0.7036 | 755.3 ± 0.5 | 1259.1 ± 1.9 | 1.8 ± 0.02
293.15 K, x1 = 0.8368 | 751 ± 0.5 | 1235.8 ± 2 | 1.56 ± 0.02
293.15 K, x1 = 1 | 745.5 ± 0.6 | 1204 ± 2.2 | 1.29 ± 0.02
303.15 K, x1 = 0.1261 | 763.8 ± 0.3 | 1305.2 ± 1.4 | 2.47 ± 0.02
303.15 K, x1 = 0.2449 | 760.9 ± 0.3 | 1290 ± 1.5 | 2.25 ± 0.02
303.15 K, x1 = 0.4087 | 756.8 ± 0.4 | 1267.4 ± 1.6 | 1.97 ± 0.02
303.15 K, x1 = 0.562 | 752.6 ± 0.4 | 1244.5 ± 1.8 | 1.72 ± 0.02
303.15 K, x1 = 0.7036 | 748.3 ± 0.5 | 1221.1 ± 1.9 | 1.5 ± 0.02
303.15 K, x1 = 0.8368 | 743.9 ± 0.5 | 1197.4 ± 2 | 1.31 ± 0.02
303.15 K, x1 = 1 | 738.2 ± 0.6 | 1164.9 ± 2.2 | 1.1 ± 0.01
313.15 K, x1 = 0.1261 | 756.8 ± 0.3 | 1268.4 ± 1.4 | 2.03 ± 0.02
313.15 K, x1 = 0.2449 | 754 ± 0.3 | 1253.3 ± 1.5 | 1.86 ± 0.02
313.15 K, x1 = 0.4087 | 749.8 ± 0.4 | 1230.7 ± 1.6 | 1.64 ± 0.02
313.15 K, x1 = 0.562 | 745.6 ± 0.4 | 1207.5 ± 1.8 | 1.44 ± 0.02
313.15 K, x1 = 0.7036 | 741.3 ± 0.5 | 1183.8 ± 1.9 | 1.27 ± 0.01
313.15 K, x1 = 0.8368 | 736.8 ± 0.5 | 1159.8 ± 2 | 1.11 ± 0.01
313.15 K, x1 = 1 | 730.9 ± 0.6 | 1126.7 ± 2.2 | 0.941 ± 0.012
323.15 K, x1 = 0.1261 | – | 1232.5 ± 1.4 | 1.68 ± 0.01
323.15 K, x1 = 0.2449 | – | 1217.2 ± 1.5 | 1.55 ± 0.01
323.15 K, x1 = 0.4087 | – | 1194.6 ± 1.6 | 1.38 ± 0.01
323.15 K, x1 = 0.562 | – | – | 1.23 ± 0.01
323.15 K, x1 = 0.7036 | – | – | 1.09 ± 0.01
323.15 K, x1 = 0.8368 | – | – | 0.966 ± 0.012
323.15 K, x1 = 1 | – | – | 0.827 ± 0.011

Conditions | surface tension liquid-gas [mN/m]
x1 = 0.1261 | 25.9 ± 0.4
x1 = 0.2449 | 25.3 ± 0.4
x1 = 0.4087 | 24.3 ± 0.4
x1 = 0.562 | 23.8 ± 0.4
x1 = 0.7036 | 23.1 ± 0.4
x1 = 0.8368 | 22.5 ± 0.4
x1 = 1 | 21.8 ± 0.4
